From patent US20100190846A1, “MICROBICIDAL AGENT AND MICROBICIDAL COMPOSITION” (priority 2006, published 2010)
In brackets after ≈: the same amount, converted by molar mass.

Columns and labels:
Experiment in all cases: Agar dilution method microbicidal test
Type in all cases: cell-based
Salmonella sp. = system: Salmonella sp. Further: key: +: grew; −: did not grow.
Description: (§1) As microbicidal test method for trans-p-coumaric acid, 3-hydroxypyridine, p-hydroxybenzaldehyde and vanillin, the agar dilution method was employed.
(§2) In agar dilution method, a solution in which a sample is dissolved is serially diluted several times, and each of the diluted sample solutions is mixed with agar medium to prepare plate agars having various sample concentration. Then bacteria is inoculated onto the plate agars. In cases where the sample has a microbicidal activity, the growth of the bacteria on the plates can be inhibited. The lowest concentration which can inhibit the growth of the bacteria is referred to as Minimum Inhibitory Concentration (MIC), thereby judging the degree of a microbicidal activity of the sample.
(§3) First, 400 mg of sample was dissolved in 1 mL of DMSO to prepare 400 mg/mL sample solution. Then 0.5 mL of this 400 mg/mL sample solution was diluted 2-fold to prepare 200 mg/mL sample solution. In the same manner, sample solutions of 100 mg/mL, 50.0 mg/mL, and 25.0 mg/mL were prepared. In addition, 300 mg/mL sample solution was prepared. Thereafter, 0.2 mL of these sample solutions each was mixed with 19.8 mL of BHI (Brain Heart Infusion Agar, Becton Dickinson, MD) medium, thereby preparing agar plates having the sample concentration of 4.0 mg/mL, 3.0 mg/mL, 2.0 mg/mL, 1.0 mg/mL, 0.5 mg/mL, and 0.25 mg/mL in dishes. […] Sterilized water was used for dissolving catechin, because catechin was insoluble in DMSO.
(§4) As test bacteria, 13 kinds of bacteria, i.e., Streptococcus pneumoniae, Streptococcus pyogenes, Enterococcus faecalis, Staphylococcus aureus, Escherichia coli, Salmonella sp., Yersinia enterocolitica, Vibrio parahaemolyticus, Pseudomonas aeruginosa, Bacillus cereus, Bacillus subtilis MB-32, Bacillus subtilis ATCC6633, and Candida sp., were used. These bacteria each was mixed with 2 mL of sterilized MHB^R liquid medium (Mueller Hinton Broth^R, Becton Dickinson, MD) to prepare bacterial suspension having turbidity 1 (bacterial concentration 10^8/mL). Previously, small test tubes were set into each cell of a grating and sterilized, and 1 mL of 13 bacterial suspensions were added into the small test tubes set in the grating, respectively. By using a microplanter (SAKUMA, model: MIT-P), 10 μL aliquot was collected from each test tube set in the grating and transferred to other test tube, and the transferred bacterial suspensions were diluted 100-fold (bacterial concentration 10^6/mL).
(§5) By using the microplanter, 10 μL (bacterial number […]) of this bacterial suspension was inoculated onto the plates containing the sample solution of various concentrations. The plates were incubated for 18 hours in an incubator at 37° C., and then a microbicidal activity of each compound was assessed.

Bacillus subtilis MB-32 = system: Bacillus subtilis MB-32; further: key: +: grew; −: did not grow
Description: as §1, §2, §3, §4, §5

Streptococcus pneumoniae = system: Streptococcus pneumoniae; on Growth on agar plate: key: +: grew; −: did not grow
Description: as §1, §2, §3, §4, §5

Candida sp. = system: Candida sp. On Growth on agar plate: key: +: grew; −: did not grow.
Description: as §1, §2, §3, §4, §5

Enterococcus faecalis = system: Enterococcus faecalis; further: key: +: grew; −: did not grow
Description: as §1, §2, §3, §4, §5

Staphylococcus aureus = system: Staphylococcus aureus; on Growth on agar plate: key: +: grew; −: did not grow
Description: as §1, §2, §3, §4, §5

Vibrio parahaemolyticus = system: Vibrio parahaemolyticus; on Growth on agar plate: key: +: grew; −: did not grow
Description: as §1, §2, §3, §4, §5

Escherichia coli = system: Escherichia coli; further: key: +: grew; −: did not grow
Description: as §1, §2, §3, §4, §5

Bacillus cereus = system: Bacillus cereus; on Growth on agar plate: key: +: grew; −: did not grow
Description: as §1, §2, §3, §4, §5

Pseudomonas aeruginosa = system: Pseudomonas aeruginosa; further: key: +: grew; −: did not grow
Description: as §1, §2, §3, §4, §5

Streptococcus pyogenes = system: Streptococcus pyogenes; on Growth on agar plate: key: +: grew; −: did not grow
Description: as §1, §2, §3, §4, §5

Yersinia enterocolitica = system: Yersinia enterocolitica; on Growth on agar plate: key: +: grew; −: did not grow
Description: as §1, §2, §3, §4, §5

[1] = system: Bacillus subtilis ATCC6633; on Growth on agar plate: key: +: grew; −: did not grow
Description: as §1, §2, §3, §4, §5

[2] = BHI agar, 37° C., 18 hours, read-out: MIC

Structure (SMILES): O=C(O)/C=C/c1ccc(O)cc1 [trans-p-Coumaric Acid, trans-p-coumaric acid]
- Growth on agar plate (Salmonella sp.; 0.25 mg/mL): +
- Growth on agar plate (Salmonella sp.; 0.5 mg/mL): +
- Growth on agar plate (Salmonella sp.; 1.0 mg/mL): +
- Growth on agar plate (Salmonella sp.; 2.0 mg/mL): +
- Growth on agar plate (Salmonella sp.; 3.0 mg/mL): +
- Growth on agar plate (Salmonella sp.; 4.0 mg/mL): +
- Growth on agar plate (Bacillus subtilis MB-32; 0.25 mg/mL): +
- Growth on agar plate (Bacillus subtilis MB-32; 0.5 mg/mL): +
- Growth on agar plate (Bacillus subtilis MB-32; 1.0 mg/mL): +
- Growth on agar plate (Bacillus subtilis MB-32; 2.0 mg/mL): +
- Growth on agar plate (Bacillus subtilis MB-32; 3.0 mg/mL): +
- Growth on agar plate (Bacillus subtilis MB-32; 4.0 mg/mL): +
- activity (in words) (Streptococcus pneumoniae): had an activity
- Growth on agar plate (Streptococcus pneumoniae; 0.25 mg/mL): +
- Growth on agar plate (Streptococcus pneumoniae; 0.5 mg/mL): +
- Growth on agar plate (Streptococcus pneumoniae; 1.0 mg/mL): +
- Growth on agar plate (Streptococcus pneumoniae; 2.0 mg/mL): −
- Growth on agar plate (Streptococcus pneumoniae; 3.0 mg/mL): −
- Growth on agar plate (Streptococcus pneumoniae; 4.0 mg/mL): −
- MIC (Streptococcus pneumoniae; [2]): 2000 µg/mL (≈ 12.2 mM)
- activity (in words) (Candida sp.): had an activity
- Growth on agar plate (Candida sp.; 0.25 mg/mL): +
- Growth on agar plate (Candida sp.; 0.5 mg/mL): +
- Growth on agar plate (Candida sp.; 1.0 mg/mL): +
- Growth on agar plate (Candida sp.; 2.0 mg/mL): +
- Growth on agar plate (Candida sp.; 3.0 mg/mL): −
- Growth on agar plate (Candida sp.; 4.0 mg/mL): −
- MIC (Candida sp.; [2]): 3000 µg/mL (≈ 18.3 mM)
- Growth on agar plate (Enterococcus faecalis; 0.25 mg/mL): +
- Growth on agar plate (Enterococcus faecalis; 0.5 mg/mL): +
- Growth on agar plate (Enterococcus faecalis; 1.0 mg/mL): +
- Growth on agar plate (Enterococcus faecalis; 2.0 mg/mL): +
- Growth on agar plate (Enterococcus faecalis; 3.0 mg/mL): +
- Growth on agar plate (Enterococcus faecalis; 4.0 mg/mL): +
- activity (in words) (Staphylococcus aureus): had an activity
- Growth on agar plate (Staphylococcus aureus; 0.25 mg/mL): +
- Growth on agar plate (Staphylococcus aureus; 0.5 mg/mL): +
- Growth on agar plate (Staphylococcus aureus; 1.0 mg/mL): +
- Growth on agar plate (Staphylococcus aureus; 2.0 mg/mL): +
- Growth on agar plate (Staphylococcus aureus; 3.0 mg/mL): +
- Growth on agar plate (Staphylococcus aureus; 4.0 mg/mL): −
- MIC (Staphylococcus aureus; [2]): 4000 µg/mL (≈ 24.4 mM)
- activity (in words) (Vibrio parahaemolyticus): had an activity
- Growth on agar plate (Vibrio parahaemolyticus; 0.25 mg/mL): +
- Growth on agar plate (Vibrio parahaemolyticus; 0.5 mg/mL): +
- Growth on agar plate (Vibrio parahaemolyticus; 1.0 mg/mL): +
- Growth on agar plate (Vibrio parahaemolyticus; 2.0 mg/mL): +
- Growth on agar plate (Vibrio parahaemolyticus; 3.0 mg/mL): −
- Growth on agar plate (Vibrio parahaemolyticus; 4.0 mg/mL): −
- MIC (Vibrio parahaemolyticus; [2]): 3000 µg/mL (≈ 18.3 mM)
- Growth on agar plate (Escherichia coli; 0.25 mg/mL): +
- Growth on agar plate (Escherichia coli; 0.5 mg/mL): +
- Growth on agar plate (Escherichia coli; 1.0 mg/mL): +
- Growth on agar plate (Escherichia coli; 2.0 mg/mL): +
- Growth on agar plate (Escherichia coli; 3.0 mg/mL): +
- Growth on agar plate (Escherichia coli; 4.0 mg/mL): +
- activity (in words) (Bacillus cereus): had an activity
- Growth on agar plate (Bacillus cereus; 0.25 mg/mL): +
- Growth on agar plate (Bacillus cereus; 0.5 mg/mL): +
- Growth on agar plate (Bacillus cereus; 1.0 mg/mL): +
- Growth on agar plate (Bacillus cereus; 2.0 mg/mL): +
- Growth on agar plate (Bacillus cereus; 3.0 mg/mL): −
- Growth on agar plate (Bacillus cereus; 4.0 mg/mL): −
- MIC (Bacillus cereus; [2]): 3000 µg/mL (≈ 18.3 mM)
- Growth on agar plate (Pseudomonas aeruginosa; 0.25 mg/mL): +
- Growth on agar plate (Pseudomonas aeruginosa; 0.5 mg/mL): +
- Growth on agar plate (Pseudomonas aeruginosa; 1.0 mg/mL): +
- Growth on agar plate (Pseudomonas aeruginosa; 2.0 mg/mL): +
- Growth on agar plate (Pseudomonas aeruginosa; 3.0 mg/mL): +
- Growth on agar plate (Pseudomonas aeruginosa; 4.0 mg/mL): +
- activity (in words) (Streptococcus pyogenes): had an activity
- Growth on agar plate (Streptococcus pyogenes; 0.25 mg/mL): +
- Growth on agar plate (Streptococcus pyogenes; 0.5 mg/mL): +
- Growth on agar plate (Streptococcus pyogenes; 1.0 mg/mL): +
- Growth on agar plate (Streptococcus pyogenes; 2.0 mg/mL): +
- Growth on agar plate (Streptococcus pyogenes; 3.0 mg/mL): −
- Growth on agar plate (Streptococcus pyogenes; 4.0 mg/mL): −
- MIC (Streptococcus pyogenes; [2]): 3000 µg/mL (≈ 18.3 mM)
- activity (in words) (Yersinia enterocolitica): had an activity
- Growth on agar plate (Yersinia enterocolitica; 0.25 mg/mL): +
- Growth on agar plate (Yersinia enterocolitica; 0.5 mg/mL): +
- Growth on agar plate (Yersinia enterocolitica; 1.0 mg/mL): +
- Growth on agar plate (Yersinia enterocolitica; 2.0 mg/mL): +
- Growth on agar plate (Yersinia enterocolitica; 3.0 mg/mL): +
- Growth on agar plate (Yersinia enterocolitica; 4.0 mg/mL): −
- MIC (Yersinia enterocolitica; [2]): 4000 µg/mL (≈ 24.4 mM)
- MIC ([1]; ATCC6633, Bacillus subtilis ATCC 6633, BHI agar, 37° C., 18 hours, read-out: MIC): 3000 µg/mL (≈ 18.3 mM)
- activity (in words) ([1]; Bacillus subtilis ATCC6633): had an activity
- Growth on agar plate ([1]; Bacillus subtilis ATCC 6633, 0.25 mg/mL): +
- Growth on agar plate ([1]; Bacillus subtilis ATCC 6633, 0.5 mg/mL): +
- Growth on agar plate ([1]; Bacillus subtilis ATCC 6633, 1.0 mg/mL): +
- Growth on agar plate ([1]; Bacillus subtilis ATCC 6633, 2.0 mg/mL): +
- Growth on agar plate ([1]; Bacillus subtilis ATCC 6633, 3.0 mg/mL): −
- Growth on agar plate ([1]; Bacillus subtilis ATCC 6633, 4.0 mg/mL): −
